Measured values: PubChem BioAssay AID330 (DTP/NCI, 2004)
Values joined by “and” are separate entries in the source; they are usually repeats but may differ in a detail not shown here. Identical values can stand only once. Toxic doses and inconclusive results are not listed. How the source made its calls: active means survival T/C of 150% or more; inactive means T/C below 125% in these data.

Test system: P388 leukemia ip, CD2F1 mice, survival T/C
Test: NCI In Vivo Anticancer Drug Screen. Data for tumor model P388 Leukemia (intraperitoneal) in CD2F1 (CDF1) mice
Conditions: endpoint: median survival time, higher = longer survival
How it was run: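 Mice carrying the transplanted tumor received test compound or vehicle. Survival was recorded in each group, and the value is the treated-group measurement divided by that of the vehicle-treated control group.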

[1] = dose: 50.0 mg/kg/injection, schedule: Q01DX009 (ip), vehicle: saline with Tween-80
[2] = dose: 100.0 mg/kg/injection, schedule: Q01DX009 (ip), vehicle: saline with Tween-80
[3] = dose: 200.0 mg/kg/injection, schedule: Q01DX009 (ip), vehicle: saline with Tween-80
[4] = dose: 50.0 mg/kg/injection, schedule: Q01DX005 (ip), vehicle: saline
[5] = dose: 100.0 mg/kg/injection, schedule: Q01DX005 (ip), vehicle: saline
[6] = dose: 200.0 mg/kg/injection, schedule: Q01DX005 (ip), vehicle: saline
[7] = dose: 50.0 mg/kg/injection, schedule: Q01DX005 (ip), vehicle: Klucel (hydroxypropylcellulose) (HPC)
[8] = dose: 100.0 mg/kg/injection, schedule: Q01DX005 (ip), vehicle: Klucel (hydroxypropylcellulose) (HPC)
[9] = dose: 200.0 mg/kg/injection, schedule: Q01DX005 (ip), vehicle: Klucel (hydroxypropylcellulose) (HPC)
[10] = dose: 50.0 mg/kg/injection, schedule: Q01DX005 (ip), vehicle: saline with Tween-80
[11] = dose: 100.0 mg/kg/injection, schedule: Q01DX005 (ip), vehicle: saline with Tween-80
[12] = dose: 50.0 mg/kg/injection, schedule: Q01DX009 (ip), vehicle: Klucel (hydroxypropylcellulose) (HPC)
[13] = dose: 100.0 mg/kg/injection, schedule: Q01DX009 (ip), vehicle: Klucel (hydroxypropylcellulose) (HPC)
[14] = dose: 200.0 mg/kg/injection, schedule: Q01DX009 (ip), vehicle: Klucel (hydroxypropylcellulose) (HPC)
[15] = dose: 12.5 mg/kg/injection, schedule: Q01DX009 (ip), vehicle: saline with Tween-80

Measured: T/C

CN(C)C1CC2CCCCC2CC1O (stereo not drawn)
inactive: dose: 25.0 mg/kg/injection, schedule: Q04DX003 (ip), vehicle: saline 93 % of control | dose: 50.0 mg/kg/injection, schedule: Q04DX003 (ip), vehicle: saline 99 % of control | dose: 100.0 mg/kg/injection, schedule: Q01DX001 (ip), vehicle: saline 104 % of control | dose: 100.0 mg/kg/injection, schedule: Q04DX003 (ip), vehicle: saline 103 % of control | dose: 200.0 mg/kg/injection, schedule: Q01DX001 (ip), vehicle: saline 98 % of control

COc1ccc2c(c1)CCC1C2CCC2(C)C1CCC2(O)CCN=[N+]=[N-] (stereo not drawn)
inactive: [1] 104 % of control | [2] 101 % of control | [3] 101 % of control

O=c1c2ccccc2c2ccccc2c(=O)n1-c1cc2c3ccccc3ccc2c2ccccc12
inactive: dose: 60.0 mg/kg/injection, schedule: Q01DX005 (ip), vehicle: Klucel (hydroxypropylcellulose) (HPC) 100 % of control | dose: 120.0 mg/kg/injection, schedule: Q01DX005 (ip), vehicle: Klucel (hydroxypropylcellulose) (HPC) 99 % of control | dose: 240.0 mg/kg/injection, schedule: Q01DX005 (ip), vehicle: Klucel (hydroxypropylcellulose) (HPC) 95 % of control

CC(C)(C)OC(OC1(C)COC1=O)C1(C)CO1 (stereo not drawn)
inactive: [4] 87 % of control | dose: 50.0 mg/kg/injection, schedule: Q01DX005 (ip), vehicle: water 103 % of control | [5] 86 % of control | dose: 100.0 mg/kg/injection, schedule: Q01DX005 (ip), vehicle: water 105 % of control | [6] 97 % of control | dose: 200.0 mg/kg/injection, schedule: Q01DX005 (ip), vehicle: water 90 % of control

CCOC(=O)c1cccc(N)c1C(=O)OCCN(CC)CC
inactive: [7] 93 % of control | [8] 87 % of control | [9] 99 % of control

OCC1OC(n2cnc3c(Cl)ncnc32)CC1O (stereo not drawn)
inactive: [4] 94 % of control | [5] 92 % of control | [6] 102 % of control

N=C(N)S(=O)(=O)c1ccccc1
inactive: dose: 12.5 mg/kg/injection, schedule: Q04DX003 (ip), vehicle: Klucel (hydroxypropylcellulose) (HPC) 102 % of control and 106 % of control | dose: 25.0 mg/kg/injection, schedule: Q04DX003 (ip), vehicle: Klucel (hydroxypropylcellulose) (HPC) 106 % of control and 108 % of control (2×) | dose: 50.0 mg/kg/injection, schedule: Q04DX003 (ip), vehicle: Klucel (hydroxypropylcellulose) (HPC) 102 % of control and 107 % of control and 121 % of control | dose: 100.0 mg/kg/injection, schedule: Q04DX003 (ip), vehicle: Klucel (hydroxypropylcellulose) (HPC) 112 % of control | dose: 200.0 mg/kg/injection, schedule: Q04DX003 (ip), vehicle: Klucel (hydroxypropylcellulose) (HPC) 118 % of control

N#Cc1cnn(C(N)=O)c1N
inactive: [2] 110 % of control | dose: 100.0 mg/kg/injection, schedule: Q04DX003 (ip), vehicle: saline with Tween-80 100 % of control | [3] 110 % of control | dose: 200.0 mg/kg/injection, schedule: Q04DX003 (ip), vehicle: saline with Tween-80 100 % of control | dose: 400.0 mg/kg/injection, schedule: Q01DX009 (ip), vehicle: saline with Tween-80 100 % of control | dose: 400.0 mg/kg/injection, schedule: Q04DX003 (ip), vehicle: saline with Tween-80 100 % of control

NC(=S)N/N=C\C(CC(O)CO)=N\NC(N)=S (stereo not drawn)
inactive: [10] 101 % of control | [11] 101 % of control | dose: 200.0 mg/kg/injection, schedule: Q01DX005 (ip), vehicle: saline with Tween-80 93 % of control

O=C(NC(=O)C(F)(F)C(F)(F)F)Nc1ccc(Cl)cc1
inactive: [12] 115 % of control | [13] 98 % of control | [14] 101 % of control

CCOC(=O)C(C)(/C=N/NS(=O)(=O)c1ccc(C)cc1)c1ccccc1 (stereo not drawn)
inactive: [12] 106 % of control | [13] 98 % of control | [14] 100 % of control

O=C1NC(=O)C(=Cc2c(Cl)cccc2Cl)C(=O)N1
inactive: [15] 116 % of control | dose: 25.0 mg/kg/injection, schedule: Q01DX009 (ip), vehicle: saline with Tween-80 122 % of control | [1] 122 % of control

CC1C(=O)c2cc3c(cc2CCN(C)Cc2c1ccc1c2OCO1)OCO3 (stereo not drawn)
inactive: dose: 5.0 mg/kg/injection, schedule: Q01DX009 (ip), vehicle: saline with Tween-80 100 % of control | dose: 10.0 mg/kg/injection, schedule: Q01DX009 (ip), vehicle: saline with Tween-80 99 % of control | [15] 90 % of control | dose: 25.0 mg/kg/injection, schedule: Q04DX003 (ip), vehicle: saline with Tween-80 109 % of control | [1] 90 % of control | dose: 50.0 mg/kg/injection, schedule: Q04DX003 (ip), vehicle: saline with Tween-80 104 % of control

Nc1ncnc2c1cnn2CCCl
inactive: dose: 6.25 mg/kg/injection, schedule: Q01DX009 (ip), vehicle: saline 95 % of control | dose: 12.5 mg/kg/injection, schedule: Q01DX009 (ip), vehicle: saline 100 % of control | dose: 25.0 mg/kg/injection, schedule: Q01DX009 (ip), vehicle: saline 100 % of control

CCCCCCCCCCCCCC(=O)OC1C(C)C2(O)C(C=C(CO)CC3(O)C(O)C(C)=CC32)C2C(C)(C)C12OC(C)=O (stereo not drawn)
inactive: dose: 0.12 mg/kg/injection, schedule: Q01DX009 (ip), vehicle: saline 106 % of control | dose: 0.25 mg/kg/injection, schedule: Q01DX009 (ip), vehicle: saline 101 % of control | dose: 0.5 mg/kg/injection, schedule: Q01DX009 (ip), vehicle: saline 111 % of control | dose: 1.0 mg/kg/injection, schedule: Q01DX009 (ip), vehicle: saline 99 % of control | dose: 2.0 mg/kg/injection, schedule: Q01DX009 (ip), vehicle: saline 101 % of control

O=C(O)C(=O)O.O=C(O)C(=O)O.O=C(O)C(=O)O.[Ru]
inactive: dose: 12.5 mg/kg/injection, schedule: Q04DX003 (ip), vehicle: water 110 % of control and 87 % of control

O=C(CC(O)CCc1ccc(O)c(O)c1)O[C@H]1Cc2c(O)cc(O)cc2O[C@H]1c1ccc(O)c(O)c1 (stereo partly drawn)
inactive: dose: 20.0 mg/kg/injection, schedule: Q01DX005 (ip), vehicle: saline with Tween-80 105 % of control | dose: 40.0 mg/kg/injection, schedule: Q01DX005 (ip), vehicle: saline with Tween-80 105 % of control | dose: 80.0 mg/kg/injection, schedule: Q01DX005 (ip), vehicle: saline with Tween-80 100 % of control

O=c1c(I)cn(CC(O)CO)c(=O)n1CC(O)CO (stereo not drawn)
inactive: [7] 95 % of control | [8] 100 % of control | [9] 86 % of control

S=C(NNc1nnc(-c2ccccc2)c(-c2ccccc2)n1)NC1CCCCC1
inactive: [10] 93 % of control | [11] 88 % of control

COC(=O)[C@@H]1[C@H](O)[C@H](C)[C@H](O)[C@H](C)/C=C\C=C(C)C(=O)Nc2c(C)c(OC(C)=O)c3c(c2O)C(=O)C(C)=C2OCOC(=C23)C(C)=C[C@@](C)(O)[C@H](O)[C@@H](C)[C@H]1OC(C)=O
inactive: dose: 50.0 mg/kg/injection, schedule: Q01DX009 (ip), vehicle: saline 96 % of control | dose: 100.0 mg/kg/injection, schedule: Q01DX009 (ip), vehicle: saline 109 % of control and 96 % of control | dose: 200.0 mg/kg/injection, schedule: Q01DX009 (ip), vehicle: saline 99 % of control and 122 % of control | dose: 400.0 mg/kg/injection, schedule: Q01DX009 (ip), vehicle: saline 100 % of control

CCOC(=O)CC1NCCc2ccccc21 (stereo not drawn)
inactive: dose: 25.0 mg/kg/injection, schedule: Q01DX005 (ip), vehicle: saline + alcohol 103 % of control | dose: 50.0 mg/kg/injection, schedule: Q01DX005 (ip), vehicle: saline + alcohol 103 % of control | dose: 100.0 mg/kg/injection, schedule: Q01DX005 (ip), vehicle: saline + alcohol 103 % of control | dose: 200.0 mg/kg/injection, schedule: Q01DX005 (ip), vehicle: saline + alcohol 101 % of control

O=NN(CCCl)C(=O)Nc1c[nH]c2ccccc12
active: dose: 25.0 mg/kg/injection, schedule: Q01DX009 (ip), vehicle: Klucel (hydroxypropylcellulose) (HPC) 157 % of control | [12] 159 % of control and 166 % of control | [13] 166 % of control and 176 % of control | [14] 166 % of control and 175 % of control | dose: 400.0 mg/kg/injection, schedule: Q01DX009 (ip), vehicle: Klucel (hydroxypropylcellulose) (HPC) 166 % of control and 176 % of control

CC(=O)Nc1cccc(N(CCOS(C)(=O)=O)CCOS(C)(=O)=O)c1
active: dose: 20.0 mg/kg/injection, schedule: Q04DX003 (ip), vehicle: saline with Tween-80 172 % of control
